Measurements as given in patent US5656603A (Loyola University of Chicago, priority 1995, dated 1997).
pKi: −log10 of the molar value. Values joined by “and” are separate entries in the source; they are usually repeats but may differ in a detail not shown here. Identical values can stand only once.

Columns and labels:
[1] = molecular target: T1, recombinant E. coli aminopeptidase P (Escherichia coli, UniProt P15034); experiment: Aminopeptidase P inhibition, release of arginine from Arg-Pro-Pro (fluorescent assay); assay type: biochemical
T1 construct: supplied by Dr. Tadashi Yoshimoto (Nagasaki University)
T1 sequence (P15034 whole entry): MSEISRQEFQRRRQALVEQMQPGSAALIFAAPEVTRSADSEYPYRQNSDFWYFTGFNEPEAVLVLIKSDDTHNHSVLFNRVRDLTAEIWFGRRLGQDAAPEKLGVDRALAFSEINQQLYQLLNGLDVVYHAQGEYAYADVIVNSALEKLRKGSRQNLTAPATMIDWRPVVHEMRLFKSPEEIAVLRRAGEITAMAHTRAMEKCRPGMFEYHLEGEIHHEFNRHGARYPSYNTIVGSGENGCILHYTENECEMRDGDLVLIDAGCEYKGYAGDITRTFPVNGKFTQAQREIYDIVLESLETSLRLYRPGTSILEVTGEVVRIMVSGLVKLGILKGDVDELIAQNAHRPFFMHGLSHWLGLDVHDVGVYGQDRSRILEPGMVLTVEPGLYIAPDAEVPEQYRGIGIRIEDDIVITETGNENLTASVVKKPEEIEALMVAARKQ
Text: Enzymes--Membrane-bound aminopeptidase P was purified to homogeneity from bovine lung (14) and from rat lung. Partially purified membrane-bound aminopeptidase P from human lung was obtained by treatment of lung microsomes with phosphatidylinositol-specific phospholipase C (B. thuringiensis) (ICN, Costa Mesa, Calif.) followed by centrifugation as described previously (14). Membrane dipeptidase was purified from rat lung microsomes (manuscript in preparation). Recombinant E. coli aminopeptidase P (22) and purified lamb kidney prolyl oligopeptidase (23) were generally supplied by Dr. Tadashi Yoshimoto (Nagasaki University). Purified porcine kidney prolidase and purified porcine kidney aminopeptidase M was obtained from Sigma (St. Louis, Mo.).
Enzyme Kinetics--Aminopeptidase P activity was determined by measuring the release of arginine from Arg-Pro-Pro by a fluorescent assay described previously (14). […] Each mixture was run in duplicate. Aliquots were removed from each incubation mixture at various times and assayed for the amount of arginine present to determine the reaction velocity. In general, reaction velocities were calculated from data representing less than 20% cleavage of substrate. Ki and Ki ' (=αKi) were determined from plots of 1/v versus concentration of inhibitor "i" (26) and S/v versus concentration of inhibitor "i" (27), respectively. These parameters were also determined from the slope replot and 1/v-intercept replot, respectively, of the 1/v versus 1/S plot (28). See e.g., FIG. 1B. The values from the two treatments of the data were averaged for each experiment. Experiments for each enzyme preparation were performed twice and the results averaged.

[2] = test system: [3H]-bradykinin degradation in the isolated perfused rat lung; experiment: [3H]-bradykinin degradation in the isolated perfused rat lung (HPLC of perfusate)
Protocol: Using the procedure described herein, under Experimental Procedures it was determined that aminopeptidase P contributed to Bk degradation in the mammalian lung. In that procedure, [^3 H]-Bk (labelled in Pro^2 and Pro^3) was perfused through the isolated lung in the presence or absence of various peptidase inhibitors. The perfusate was then analyzed for radiolabelled products by HPLC. […] Most of the radioactivity (an average of 79%) was in the form of [^3 H]-Pro-Pro [Bk(2-3)] with the remainder being [^3 H]-Bk(1-5). It was hypothesized that pulmonary vascular aminopeptidase P was cleaving the Arg'-Pro^2 bond followed by rapid removal of Pro-Pro by dipeptidylpeptidase IV (DPP IV) (12). Simultaneously, angiotensin converting enzyme (ACE) was sequentially removing Phe-Arg and Ser-Pro from the C-terminus (13). […] However, most of the radioactivity remained in the Pro-Pro peak indicating substantial cleavage of Bk at the N-terminal end.
Perfusion of the Isolated Rat Lung--Male Sprague Dawley rats, weighing 300-500 grams, were anesthetized with sodium pentobarbital (50-75 mg/kg) given by intraperitoneal injection. The trachea was cannulated and the lungs ventilated with air at 70 cycles per minute (Harvard Small Animal Ventilator) at a pressure of 70 mm H2 O. The heart and lungs were exposed via midsternal incision and 1000 units of heparin were administered intracardially. Polyethylene cannulae were secured into the pulmonary artery and the left ventricle. A modified Krebs buffer (118.5 mM NaCl, 4.7 mM KCl, 1.1 mM KH2 PO4, 1.1 mM MgSO4, 2.5 mM CaCl2, 19.6 mM NaHCO3, 5.6 mM dextrose), which was kept in a 50° C. water bath and aerated with 95% O2 -5% CO2 to pH 7.35, was perfused into the pulmonary artery at 35° C. and 2.6 ml/min (LKB Microperplex peristaltic pump). The buffer was circulated through the isolated lung in situ until the effluent was free of blood. The surgical field was maintained at 37° .C with a heat lamp throughout the procedure. Experiments were conducted by introducing [^3 H]-Bk in the presence or absence of test peptidase inhibitors into the pulmonary circulation via the pulmonary artery and then collecting perfusion effluent from the left ventricular cannula. […] The lung was then perfused with 1 μCi [^3 H]-Bk in 1 ml of the inhibitor solution (giving 16 nM Bk) followed by inhibitor solution alone. Effluent was collected in tubes (0.5 min/fraction) containing 150 μl of 2% TFA. For each lung preparation, 5-6 samples were perfused over a period of about one hour. Control perfusions of [^3 H]-Bk alone were always carried out before perfusions of samples containing ramiprilat because of the slow reversibility of inhibition of ACE by this compound. […] The effects of the latter two inhibitors were reversible.
Separation and Identification of Bradykinin Metabolites--The fractions which were collected from each perfusion sample run were counted for radioactivity, and the fraction having the highest radioactive counts was prepared for HPLC by filtration through a Centricon-10 microconcentrator (Amicon). An aliquot of the filtrate containing 25000 dpm (approx. 25 μl) was spiked with a cocktail of unlabelled Bk fragments (3 μl) and then subjected to HPLC using a Waters Radial Compression Separation System with a 5μ NOVA PAK C18 Radial Pak Cartridge. The column was developed at a flow rate of 1 ml/min with a 60 min linear gradient from 100% Solvent A (0.1% TFA in water) to 75% Solvent A: 25% Solvent B (0.08% TFA in acetonitrile) using a Spectra Physics 8700XR Solvent Delivery System. The column effluent was simultaneously monitored for absorbance at 206 nm (LKB Uvicord S) and for radioactivity (Radiomatic Flo-One HS Radioactive Flow Detector using Ultima-Flo M scintillation fluid from Packard, Meriden, Conn.). […] Radioactive peaks were identified by comparison of the retention times to those of the unlabelled standards. […]

With `C[C@H](NC(=O)[C@@H]1CCCN1C(=O)[C@@H]1CCCN1C(=O)[C@@H](O)[C@H](N)Cc1ccccc1)C(N)=O` [apstatin, N-[(2S, 3R)-3-amino-2-hydroxy-4-phenylbutanoyl]-L-prolyl-L-prolyl-Lalaninamide] the “α (αKi = equilibrium constant for enzyme-inhibitor binding at infinite substrate concentration)” value ([1]; E. coli, recombinant) was 2.5, the pKi ([1]; E. coli, recombinant, substrate Arg-Pro-Pro, 0.1 M Hepes pH 8.0, 39° C.) was 4.85 and the type of inhibition ([1]; recombinant E. coli aminopeptidase P) was “linear mixed-type”. The “percentage of radioactivity eluting from the lung as intact [3H]-Bk” value ([2]; apstatin 40 μM together with ramiprilat (0.5 μM), mean ± SEM, three rats) was 92±4% and 92% and the “percentage of radioactivity eluting from the lung as intact [3H]-Bk” value ([2]; apstatin alone (data not shown), difficult to quantitate accurately) was 1-3%.
